This is an account of results in BindingDB's records for doi:10.1016/s0960-894x(03)00195-1 (Abbott Laboratories, 2003).

This assay can be described thus: Inhibition of transfer of […] to biotin K-ras peptide (KKSKTKCVLL) catalyzed by bovine GGTase-I.
As a reminder, the IC50 is the concentration at which inhibition is half-maximal. A low value points to greater potency. `Cn1cncc1C(OCc1ccc(C#N)cc1-c1cccc(OC(F)(F)F)c1)c1ccc(C#N)nc1` (centres undefined) [5-[(5-Cyano-3'-trifluoromethoxy-biphenyl-2-ylmethoxy)-(3-methyl-3H-imidazol-4-yl)-methyl]-pyridine-2-carbonitrile] returned a concentration for half-maximal inhibition (IC50) of 990 nM. In the case of `Cn1cncc1C(OCc1nc(N2CCC(C(N)=O)CC2)c(C#N)cc1-c1cccc(Cl)c1)c1ccc(C#N)cc1` (centres undefined) [5'-(3-Chloro-phenyl)-3'-cyano-6'-[(4-cyano-phenyl)-(3-methyl-3H-imidazol-4-yl)-methoxymethyl]-3,4,5,6-tetrahydro-2H-[1,2']bipyridinyl-4-carboxylic acid amide], the IC50 was found to be 2100 nM. Consider `Cn1cncc1C(OCc1ccc(C#N)cc1-c1cccc(Cl)c1)c1ccc(C#N)nc1` (centres undefined) [5-[(3'-Chloro-5-cyano-biphenyl-2-ylmethoxy)-(3-methyl-3H-imidazol-4-yl)-methyl]-pyridine-2-carbonitrile], for which the IC50 is 8620 nM. For `Cn1cncc1C(OCc1ccc(C#N)c(-c2ccc3ccccc3c2)n1)c1ccc(C#N)cc1` (centres undefined) the value was 2600 nM; for `Cn1cncc1C(OCc1ccc(C#N)c(-c2cccc(Cl)c2)n1)c1ccc(C#N)cc1` (centres undefined) [2-(3-Chloro-phenyl)-6-[(4-cyano-phenyl)-(3-methyl-3H-imidazol-4-yl)-methoxymethyl]-nicotinonitrile], 1100 nM; for `Cn1cncc1C(OCc1ccc(C#N)cc1-c1ccc(F)c(Cl)c1)c1ccc(C#N)nc1` (centres undefined) [5-[(3'-Chloro-5-cyano-4'-fluoro-biphenyl-2-ylmethoxy)-(3-methyl-3H-imidazol-4-yl)-methyl]-pyridine-2-carbonitrile], 8600 nM. In turn, `Cn1cncc1C(OCc1ccc(C#N)nc1-c1ccc2c(c1)OC(F)(F)O2)c1ccc(C#N)cc1` (centres undefined) [5-[(4-Cyano-phenyl)-(3-methyl-3H-imidazol-4-yl)-methoxymethyl]-6-(2,2-difluoro-benzo[1,3]dioxol-5-yl)-pyridine-2-carbonitrile] gave an IC50 of 1100 nM. `CN1CCN(c2nc(COC(c3ccc(C#N)cc3)c3cncn3C)c(-c3cccc(Cl)c3)cc2C#N)CC1` (centres undefined) [5-(3-Chloro-phenyl)-6-[(4-cyano-phenyl)-(3-methyl-3H-imidazol-4-yl)-methoxymethyl]-2-(4-methyl-piperazin-1-yl)-nicotinonitrile] showed an IC50 of 2400 nM. The value for `Cn1cncc1C(OCc1ccc(C#N)nc1-c1cc(Cl)cc(Cl)c1)c1ccc(C#N)cc1` (centres undefined) [5-[(4-Cyano-phenyl)-(3-methyl-3H-imidazol-4-yl)-methoxymethyl]-6-(3,5-dichloro-phenyl)-pyridine-2-carbonitrile] was 1400 nM; that for `Cn1cncc1C(OCc1ccc(C#N)nc1-c1ccc(OC(F)(F)F)cc1)c1ccc(C#N)cc1` (centres undefined) [5-[(4-Cyano-phenyl)-(3-methyl-3H-imidazol-4-yl)-methoxymethyl]-6-(4-trifluoromethoxy-phenyl)-pyridine-2-carbonitrile] was 1200 nM; that for `Cn1cncc1[C@H](OCc1nc(Cl)c(C#N)cc1-c1cccc(Cl)c1)c1ccc(C#N)cc1` was 2800 nM. For `Cn1cncc1C(OCc1ncc(C#N)cc1-c1cccc(Cl)c1)c1ccc(C#N)cc1` (centres undefined) the value was 4200 nM.

Molecule `CC(=O)N1CCN(c2nc(COC(c3ccc(C#N)cc3)c3cncn3C)c(-c3cccc(Cl)c3)cc2C#N)CC1` (centres undefined) displayed an IC50 of 2100 nM.

Consider `Cn1cncc1C(OCc1nc(N2CCN(C(=O)OC(C)(C)C)CC2)c(C#N)cc1-c1cccc(Cl)c1)c1ccc(C#N)cc1` (centres undefined), for which inhibition was half-maximal at 650 nM (IC50).

Molecule `Cn1cncc1C(OCc1nc(N2CCOCC2)c(C#N)cc1-c1cccc(Cl)c1)c1ccc(C#N)cc1` (centres undefined) [5-(3-Chloro-phenyl)-6-[(4-cyano-phenyl)-(3-methyl-3H-imidazol-4-yl)-methoxymethyl]-2-morpholin-4-yl-nicotinonitrile] had an IC50 of 1800 nM. Molecule `Cn1cncc1C(OCc1nc(N2CCC(O)CC2)c(C#N)cc1-c1cccc(Cl)c1)c1ccc(C#N)cc1` (centres undefined) [5'-(3-Chloro-phenyl)-6'-[(4-cyano-phenyl)-(3-methyl-3H-imidazol-4-yl)-methoxymethyl]-4-hydroxy-3,4,5,6-tetrahydro-2H-[1,2']bipyridinyl-3'-carbonitrile] gave an IC50 of 830 nM. `Cn1cncc1C(OCc1ccc(C#N)cc1)c1ccc(C#N)c(-c2cccc3cccnc23)c1` (centres undefined) [4-[(4-Cyano-benzyloxy)-(3-methyl-3H-imidazol-4-yl)-methyl]-2-quinolin-8-yl-benzonitrile] came in with an IC50 of 103 nM. For `Cn1cncc1C(OCc1ccc(C#N)cc1-c1cc(Cl)cc(Cl)c1)c1ccc(C#N)nc1` (centres undefined) [5-[(3',5'-Dichloro-5-cyano-biphenyl-2-ylmethoxy)-(3-methyl-3H-imidazol-4-yl)-methyl]-pyridine-2-carbonitrile] the value was 960 nM; for `Cn1cncc1C(OCc1ccc(C#N)cn1)c1ccc(C#N)c(-c2cccc3ccccc23)c1` (centres undefined) [A-315493], 24 nM; for `Cn1cncc1C(OCc1ccc(C#N)nc1-c1cc(F)cc(F)c1)c1ccc(C#N)cc1` (centres undefined), 4800 nM. Turning to `Cn1cncc1C(OCc1ccc(C#N)nc1-c1cccc(Cl)c1)c1ccc(C#N)cc1` (centres undefined) [6-(3-Chloro-phenyl)-5-[(4-cyano-phenyl)-(3-methyl-3H-imidazol-4-yl)-methoxymethyl]-pyridine-2-carbonitrile], inhibition was half-maximal at 1700 nM (IC50). For `Cn1cncc1C(OCc1ccc(C#N)nc1-c1cccc(OC(F)(F)F)c1)c1ccc(C#N)cc1` (centres undefined) the value was 510 nM; for `COc1cccc(-c2cc(C#N)ccc2COC(c2ccc(C#N)cc2)c2cncn2C)c1` (centres undefined) [4-{[(4-cyanophenyl)(1-methyl-1H-imidazol-5-yl)methoxy]methyl}-3-(3-methoxyphenyl)benzonitrile], 3900 nM. The value for `Cn1cncc1C(OCc1ccc(C#N)nc1-c1ccc2ccccc2c1)c1ccc(C#N)cc1` (centres undefined) [5-[(4-Cyano-phenyl)-(3-methyl-3H-imidazol-4-yl)-methoxymethyl]-6-naphthalen-2-yl-pyridine-2-carbonitrile] was 5500 nM.
